This is an account of results in patent US20250262262A1, “a-ACID AND/OR B-ACID BASED COPOSITIONS FROM HUMULUS FOR USE IN A HUMAN AND/OR VETERINARY APPLICATION” (Orotech NV, priority 2022, published 2025).

The test has as its system Histomonas meleagridis. The test can be described thus: Growth and viability of in vitro cultivated Histomonas meleagridis. The conditions noted are these: for Histomonas meleagridis cells counted: extrudate corresponding to 200 μg tetra-hydro-iso-α-acid/ml, dimetridazole 400 μg/ml. Format: cell-based. The method, then: The effect of a tetra-hydro-iso-α-acids milled extrudate on the growth of Histomonas meleagridis in vitro was investigated. Therefore, a milled extrudate of tetra-hydro-iso-α-acids (corresponding to an amount of 200 μg tetra-hydro-iso-α-acid/ml), a positive control (dimetridazole, concentration of 400 μg/ml) and a negative control (distilled water without addition of any substance) were used. Histomonas meleagridis cells were counted before and after 24, 48 and 72 hours of incubation.

In the case of `Cc1ncc([N+](=O)[O-])n1C` [Dimetridazole, dimetridazole], the “Histomonas meleagridis cells counted” value (0 h (before incubation)) is 1 × 10^5, the “Histomonas meleagridis cells counted” value (24 h of incubation) is 0, the “Histomonas meleagridis cells counted” value (48 h of incubation) worked out at 0 and the “Histomonas meleagridis cells counted” value (72 h of incubation) is given as 0. Moreover, the “Effect on Histomonas meleagridis cells (in words)” value (in vitro, versus negative control) is recorded as “total reduction”.
